From paper PMC9851200, “Multiparameter phenotypic screening for endogenous TFEB and TFE3 translocation identifies novel chemical series modulating lysosome function” (Autophagy, 2022)

Key:
Format in all cases: binding
[1] = target: kinases (KINOMEscan panel) (Homo sapiens, UniProt P00519, F317I); settings: NEW KINOMEscan; for KINOMEscan ABL1(F317I)-phosphorylated: kinase ABL1(F317I)-phosphorylated
[2] = target: kinases (KINOMEscan panel) (Homo sapiens, UniProt P00533, G719C); settings: kinase EGFR(G719C); NEW KINOMEscan
Chain of kinases (KINOMEscan panel) (Homo sapiens, UniProt P00533, G719C) (P00533 25-1210 G719C): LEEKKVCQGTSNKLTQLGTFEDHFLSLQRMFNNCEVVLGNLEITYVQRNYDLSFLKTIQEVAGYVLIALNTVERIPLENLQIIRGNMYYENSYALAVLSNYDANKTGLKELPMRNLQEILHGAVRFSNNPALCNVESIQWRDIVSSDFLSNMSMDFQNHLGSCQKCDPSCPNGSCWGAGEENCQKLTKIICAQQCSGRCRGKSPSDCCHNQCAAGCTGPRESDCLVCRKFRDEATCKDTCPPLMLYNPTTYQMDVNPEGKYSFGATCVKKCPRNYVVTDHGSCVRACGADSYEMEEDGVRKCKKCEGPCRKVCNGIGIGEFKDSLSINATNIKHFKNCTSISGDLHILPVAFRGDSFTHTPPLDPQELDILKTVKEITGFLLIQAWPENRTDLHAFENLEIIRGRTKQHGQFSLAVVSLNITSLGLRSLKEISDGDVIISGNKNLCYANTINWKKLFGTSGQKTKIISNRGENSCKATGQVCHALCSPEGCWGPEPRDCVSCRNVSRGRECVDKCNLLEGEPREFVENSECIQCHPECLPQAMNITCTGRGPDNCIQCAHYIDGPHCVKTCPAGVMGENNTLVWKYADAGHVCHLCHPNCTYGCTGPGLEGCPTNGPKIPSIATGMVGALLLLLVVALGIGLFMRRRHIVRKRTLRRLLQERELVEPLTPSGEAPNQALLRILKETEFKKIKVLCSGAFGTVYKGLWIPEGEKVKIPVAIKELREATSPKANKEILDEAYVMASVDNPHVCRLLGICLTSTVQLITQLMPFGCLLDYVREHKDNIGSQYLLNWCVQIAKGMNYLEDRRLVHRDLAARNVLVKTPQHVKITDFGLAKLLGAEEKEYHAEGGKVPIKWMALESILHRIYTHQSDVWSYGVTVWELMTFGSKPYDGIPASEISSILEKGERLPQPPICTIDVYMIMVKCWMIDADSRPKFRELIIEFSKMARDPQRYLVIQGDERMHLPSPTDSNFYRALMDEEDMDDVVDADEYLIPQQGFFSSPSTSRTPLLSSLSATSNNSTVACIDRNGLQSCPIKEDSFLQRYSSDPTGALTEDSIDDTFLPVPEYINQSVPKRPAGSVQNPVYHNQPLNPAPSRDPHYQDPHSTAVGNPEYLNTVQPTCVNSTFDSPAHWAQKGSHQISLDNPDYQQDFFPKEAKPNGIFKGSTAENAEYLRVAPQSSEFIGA

[3] = target: kinases (KINOMEscan panel) (Homo sapiens, UniProt P27037); settings: ACVR2A; NEW KINOMEscan
[4] = target: T1, kinases (KINOMEscan panel) (Homo sapiens, UniProt P42681); settings: kinase TXK; NEW KINOMEscan
T1 sequence (P42681 1-527): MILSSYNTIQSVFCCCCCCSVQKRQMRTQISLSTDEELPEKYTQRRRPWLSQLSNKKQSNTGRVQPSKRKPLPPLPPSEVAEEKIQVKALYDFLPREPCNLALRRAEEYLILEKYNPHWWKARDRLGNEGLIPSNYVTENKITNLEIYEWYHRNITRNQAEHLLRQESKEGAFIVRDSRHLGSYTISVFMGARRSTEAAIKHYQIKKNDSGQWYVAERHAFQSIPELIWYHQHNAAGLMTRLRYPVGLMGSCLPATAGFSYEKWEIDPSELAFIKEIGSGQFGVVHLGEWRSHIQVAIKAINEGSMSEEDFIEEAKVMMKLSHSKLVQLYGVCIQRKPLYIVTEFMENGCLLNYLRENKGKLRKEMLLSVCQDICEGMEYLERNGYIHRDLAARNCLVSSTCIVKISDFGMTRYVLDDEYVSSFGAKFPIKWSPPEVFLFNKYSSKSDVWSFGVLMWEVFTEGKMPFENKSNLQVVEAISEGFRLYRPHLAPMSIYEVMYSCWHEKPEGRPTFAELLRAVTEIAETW

[5] = target: kinases (KINOMEscan panel) (Homo sapiens, UniProt P49759); settings: kinase CLK1; NEW KINOMEscan
Chain of kinases (KINOMEscan panel) (Homo sapiens, UniProt P49759) (P49759 whole entry): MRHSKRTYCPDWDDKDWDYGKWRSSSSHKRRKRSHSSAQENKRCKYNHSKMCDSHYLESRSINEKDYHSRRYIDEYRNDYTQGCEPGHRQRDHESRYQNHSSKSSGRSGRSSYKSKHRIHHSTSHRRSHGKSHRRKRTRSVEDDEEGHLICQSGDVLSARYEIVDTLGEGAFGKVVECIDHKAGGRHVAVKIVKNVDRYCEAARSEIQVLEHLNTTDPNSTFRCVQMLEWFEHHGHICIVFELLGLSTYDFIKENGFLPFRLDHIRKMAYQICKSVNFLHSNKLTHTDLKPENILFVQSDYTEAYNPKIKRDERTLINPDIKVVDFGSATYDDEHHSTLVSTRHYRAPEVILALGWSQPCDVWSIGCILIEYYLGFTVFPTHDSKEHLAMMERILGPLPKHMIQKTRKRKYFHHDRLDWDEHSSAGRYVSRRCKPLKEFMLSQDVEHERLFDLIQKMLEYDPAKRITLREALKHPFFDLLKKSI

[6] = target: kinases (KINOMEscan panel) (Homo sapiens, UniProt P51957); settings: kinase NEK4; NEW KINOMEscan
[7] = target: kinases (KINOMEscan panel) (Homo sapiens, UniProt Q13523); settings: PRPF4B; NEW KINOMEscan
Chain of kinases (KINOMEscan panel) (Homo sapiens, UniProt Q13523) (Q13523 whole entry): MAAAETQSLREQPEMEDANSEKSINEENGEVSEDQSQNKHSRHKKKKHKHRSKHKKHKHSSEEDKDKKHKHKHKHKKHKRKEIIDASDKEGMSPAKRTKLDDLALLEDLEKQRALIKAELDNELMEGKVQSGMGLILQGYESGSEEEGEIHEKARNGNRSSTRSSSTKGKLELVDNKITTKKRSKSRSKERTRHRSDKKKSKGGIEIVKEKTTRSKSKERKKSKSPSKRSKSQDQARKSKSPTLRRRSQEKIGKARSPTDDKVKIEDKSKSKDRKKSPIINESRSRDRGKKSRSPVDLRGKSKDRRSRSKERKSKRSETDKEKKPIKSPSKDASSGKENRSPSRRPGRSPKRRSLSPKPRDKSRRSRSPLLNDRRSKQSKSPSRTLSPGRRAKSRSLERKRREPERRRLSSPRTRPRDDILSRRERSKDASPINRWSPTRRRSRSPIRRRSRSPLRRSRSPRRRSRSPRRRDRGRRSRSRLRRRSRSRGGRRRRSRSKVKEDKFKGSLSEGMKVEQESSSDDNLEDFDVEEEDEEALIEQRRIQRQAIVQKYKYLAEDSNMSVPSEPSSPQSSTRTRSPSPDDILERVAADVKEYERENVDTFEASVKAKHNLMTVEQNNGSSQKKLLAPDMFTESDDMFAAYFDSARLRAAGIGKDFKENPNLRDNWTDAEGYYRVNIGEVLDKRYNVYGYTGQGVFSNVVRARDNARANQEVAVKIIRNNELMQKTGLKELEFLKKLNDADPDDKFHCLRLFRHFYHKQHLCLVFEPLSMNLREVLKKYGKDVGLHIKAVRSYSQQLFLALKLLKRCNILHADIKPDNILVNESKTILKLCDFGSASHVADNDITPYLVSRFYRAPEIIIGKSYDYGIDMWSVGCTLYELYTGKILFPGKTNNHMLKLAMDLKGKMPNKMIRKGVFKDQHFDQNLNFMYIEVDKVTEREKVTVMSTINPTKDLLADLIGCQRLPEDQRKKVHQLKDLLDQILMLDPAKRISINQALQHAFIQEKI

[8] = target: kinases (KINOMEscan panel) (Homo sapiens, UniProt Q15303); settings: kinase ERBB4; NEW KINOMEscan
Chain of kinases (KINOMEscan panel) (Homo sapiens, UniProt Q15303) (Q15303 26-1308): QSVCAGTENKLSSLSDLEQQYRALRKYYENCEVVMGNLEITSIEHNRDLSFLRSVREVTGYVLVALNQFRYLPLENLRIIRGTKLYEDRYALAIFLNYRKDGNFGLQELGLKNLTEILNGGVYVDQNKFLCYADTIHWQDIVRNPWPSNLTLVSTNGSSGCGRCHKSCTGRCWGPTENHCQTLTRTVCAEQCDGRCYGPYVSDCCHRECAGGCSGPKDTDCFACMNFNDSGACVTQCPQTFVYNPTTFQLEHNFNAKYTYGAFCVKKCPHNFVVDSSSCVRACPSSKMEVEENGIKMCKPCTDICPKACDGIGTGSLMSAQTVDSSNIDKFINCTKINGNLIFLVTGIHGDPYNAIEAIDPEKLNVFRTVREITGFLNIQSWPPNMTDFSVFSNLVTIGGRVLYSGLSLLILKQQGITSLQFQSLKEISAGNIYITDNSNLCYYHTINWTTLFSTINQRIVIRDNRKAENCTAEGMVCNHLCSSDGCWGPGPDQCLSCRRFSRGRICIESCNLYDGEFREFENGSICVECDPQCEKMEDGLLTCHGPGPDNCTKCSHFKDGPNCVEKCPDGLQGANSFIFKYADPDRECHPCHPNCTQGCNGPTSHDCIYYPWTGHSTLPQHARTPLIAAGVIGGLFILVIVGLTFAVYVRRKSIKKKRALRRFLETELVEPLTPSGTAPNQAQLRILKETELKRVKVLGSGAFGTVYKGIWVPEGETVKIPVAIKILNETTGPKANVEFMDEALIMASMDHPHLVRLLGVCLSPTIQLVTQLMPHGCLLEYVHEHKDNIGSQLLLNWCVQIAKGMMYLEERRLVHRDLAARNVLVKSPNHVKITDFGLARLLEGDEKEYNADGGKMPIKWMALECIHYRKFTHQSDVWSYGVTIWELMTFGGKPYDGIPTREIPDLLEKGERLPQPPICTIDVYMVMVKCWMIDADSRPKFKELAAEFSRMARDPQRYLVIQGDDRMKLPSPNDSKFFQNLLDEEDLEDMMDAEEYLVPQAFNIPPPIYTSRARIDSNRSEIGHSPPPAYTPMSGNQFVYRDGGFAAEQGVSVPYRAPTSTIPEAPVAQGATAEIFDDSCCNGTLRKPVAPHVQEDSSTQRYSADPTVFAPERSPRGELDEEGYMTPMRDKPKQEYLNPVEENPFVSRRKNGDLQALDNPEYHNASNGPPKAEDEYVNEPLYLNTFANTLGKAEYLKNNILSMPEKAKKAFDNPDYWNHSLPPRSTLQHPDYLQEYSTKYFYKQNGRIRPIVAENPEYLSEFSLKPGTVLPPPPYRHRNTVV

[9] = target: T2, kinases (KINOMEscan panel) (Homo sapiens, UniProt Q96PY6); settings: kinase NEK1; NEW KINOMEscan
T2 sequence (Q96PY6 1-1258): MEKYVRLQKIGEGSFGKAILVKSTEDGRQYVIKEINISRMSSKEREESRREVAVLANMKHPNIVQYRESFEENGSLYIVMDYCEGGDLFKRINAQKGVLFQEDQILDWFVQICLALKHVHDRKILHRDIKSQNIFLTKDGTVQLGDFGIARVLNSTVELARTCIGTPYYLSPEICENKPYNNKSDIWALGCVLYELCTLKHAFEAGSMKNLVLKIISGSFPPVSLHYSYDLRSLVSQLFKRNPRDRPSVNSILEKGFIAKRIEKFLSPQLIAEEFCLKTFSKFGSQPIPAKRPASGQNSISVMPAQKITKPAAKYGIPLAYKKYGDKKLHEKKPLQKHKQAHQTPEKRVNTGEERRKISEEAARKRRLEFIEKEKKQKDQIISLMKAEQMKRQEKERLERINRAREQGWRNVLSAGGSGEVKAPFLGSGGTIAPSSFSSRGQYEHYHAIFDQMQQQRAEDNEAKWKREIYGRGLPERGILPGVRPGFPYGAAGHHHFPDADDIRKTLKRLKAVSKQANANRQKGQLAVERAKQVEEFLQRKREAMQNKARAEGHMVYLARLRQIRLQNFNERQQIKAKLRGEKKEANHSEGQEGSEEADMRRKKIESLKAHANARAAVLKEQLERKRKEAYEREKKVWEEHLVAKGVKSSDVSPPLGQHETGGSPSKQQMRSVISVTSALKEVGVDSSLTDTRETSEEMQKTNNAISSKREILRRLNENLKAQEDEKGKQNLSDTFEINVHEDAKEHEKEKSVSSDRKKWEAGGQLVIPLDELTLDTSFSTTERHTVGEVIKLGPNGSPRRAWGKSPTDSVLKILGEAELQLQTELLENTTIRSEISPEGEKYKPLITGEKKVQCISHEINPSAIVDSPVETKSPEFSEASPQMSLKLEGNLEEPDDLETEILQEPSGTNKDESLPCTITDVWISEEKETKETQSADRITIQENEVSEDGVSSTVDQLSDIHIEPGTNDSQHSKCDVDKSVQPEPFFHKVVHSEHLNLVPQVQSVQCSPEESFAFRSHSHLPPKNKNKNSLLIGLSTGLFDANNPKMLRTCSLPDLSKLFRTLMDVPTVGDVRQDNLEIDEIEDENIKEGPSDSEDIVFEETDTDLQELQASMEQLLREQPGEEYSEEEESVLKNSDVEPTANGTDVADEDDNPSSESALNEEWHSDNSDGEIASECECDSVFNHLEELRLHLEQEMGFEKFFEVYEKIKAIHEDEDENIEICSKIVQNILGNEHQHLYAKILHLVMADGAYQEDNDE

[10] = target: kinases (KINOMEscan panel) (Homo sapiens, UniProt Q9H422); settings: kinase HIPK3; NEW KINOMEscan
[11] = target: T3, kinases (KINOMEscan panel) (Homo sapiens, UniProt Q9NWZ3); settings: IRAK4; NEW KINOMEscan
T3 sequence (Q9NWZ3 1-460): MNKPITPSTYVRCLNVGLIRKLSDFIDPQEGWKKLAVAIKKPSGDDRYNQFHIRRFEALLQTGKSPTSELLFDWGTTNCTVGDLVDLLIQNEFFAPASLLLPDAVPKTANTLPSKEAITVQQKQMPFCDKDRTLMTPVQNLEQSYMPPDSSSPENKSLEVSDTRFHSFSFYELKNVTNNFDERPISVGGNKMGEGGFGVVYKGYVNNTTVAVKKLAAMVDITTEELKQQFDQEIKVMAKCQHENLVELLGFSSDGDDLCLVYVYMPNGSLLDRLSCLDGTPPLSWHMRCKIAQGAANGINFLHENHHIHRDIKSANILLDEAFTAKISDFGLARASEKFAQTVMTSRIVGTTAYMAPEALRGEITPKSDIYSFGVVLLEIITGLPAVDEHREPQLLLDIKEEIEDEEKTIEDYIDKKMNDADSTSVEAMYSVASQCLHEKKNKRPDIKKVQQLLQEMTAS

Chain of kinases (KINOMEscan panel) (Homo sapiens, UniProt P00519, F317I) (P00519 whole entry F317I): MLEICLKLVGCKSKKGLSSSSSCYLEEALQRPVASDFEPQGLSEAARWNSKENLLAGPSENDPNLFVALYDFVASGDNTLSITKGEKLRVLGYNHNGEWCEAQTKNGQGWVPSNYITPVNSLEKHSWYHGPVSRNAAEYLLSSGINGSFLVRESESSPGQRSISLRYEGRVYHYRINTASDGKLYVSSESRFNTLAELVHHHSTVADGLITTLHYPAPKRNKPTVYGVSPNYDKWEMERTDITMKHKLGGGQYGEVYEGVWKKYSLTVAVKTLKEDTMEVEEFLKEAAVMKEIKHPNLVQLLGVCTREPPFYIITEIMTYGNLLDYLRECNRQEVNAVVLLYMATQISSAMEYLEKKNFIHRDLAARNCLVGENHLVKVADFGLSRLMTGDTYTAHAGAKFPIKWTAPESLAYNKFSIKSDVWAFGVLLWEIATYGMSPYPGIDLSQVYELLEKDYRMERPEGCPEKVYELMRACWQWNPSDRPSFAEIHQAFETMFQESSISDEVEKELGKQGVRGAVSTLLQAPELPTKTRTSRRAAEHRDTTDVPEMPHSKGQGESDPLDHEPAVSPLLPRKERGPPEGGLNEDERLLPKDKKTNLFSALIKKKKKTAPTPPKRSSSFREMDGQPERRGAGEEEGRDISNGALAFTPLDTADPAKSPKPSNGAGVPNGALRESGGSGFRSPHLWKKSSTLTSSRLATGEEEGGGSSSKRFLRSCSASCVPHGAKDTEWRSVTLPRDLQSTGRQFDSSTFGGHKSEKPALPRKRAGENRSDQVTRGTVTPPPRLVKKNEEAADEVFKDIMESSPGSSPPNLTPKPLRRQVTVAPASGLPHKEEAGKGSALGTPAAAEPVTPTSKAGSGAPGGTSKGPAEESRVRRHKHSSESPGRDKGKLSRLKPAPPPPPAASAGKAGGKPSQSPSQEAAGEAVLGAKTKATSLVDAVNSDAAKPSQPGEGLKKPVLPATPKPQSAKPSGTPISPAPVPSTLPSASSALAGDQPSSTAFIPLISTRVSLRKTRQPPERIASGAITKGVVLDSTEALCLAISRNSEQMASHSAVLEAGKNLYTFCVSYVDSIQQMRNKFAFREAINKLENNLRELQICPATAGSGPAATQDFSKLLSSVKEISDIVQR

Cc1cccc(-c2nc(Nc3ccc4nn(C)cc4c3)c3ccccc3n2)n1 [NK167]
3: KINOMEscan TXK [4]
0: KINOMEscan ABL1(F317I)-nonphosphorylated [1] | KINOMEscan ABL1(F317I)-phosphorylated [1] | KINOMEscan EGFR(G719C) [2] | KINOMEscan ACVR2A [3] | KINOMEscan CLK1 [5] | KINOMEscan NEK4 [6] | KINOMEscan PRPF4B [7] | KINOMEscan ERBB4 [8] | KINOMEscan NEK1 [9] | KINOMEscan HIPK3 [10] | KINOMEscan IRAK4 [11]

Cc1cccc(-c2nc(N(C)c3ccc4ncsc4c3)c3ccccc3n2)n1 [NK-161]
0: KINOMEscan ABL1(F317I)-phosphorylated [1] | KINOMEscan EGFR(G719C) [2] | KINOMEscan ACVR2A [3] | KINOMEscan TXK [4] | KINOMEscan PRPF4B [7] | KINOMEscan ERBB4 [8] | KINOMEscan NEK1 [9] | KINOMEscan HIPK3 [10] | KINOMEscan IRAK4 [11]
9: KINOMEscan ABL1(F317I)-nonphosphorylated [1]
2: KINOMEscan CLK1 [5]
5: KINOMEscan NEK4 [6]
